Laboratory results from patent US20230390228A1, “TREATMENT METHODS USING GHB” (Jazz Pharmaceuticals Ireland Limited, priority 2020, published 2023).

Experiments:
[1] = test system: patients with fibromyalgia; assay: Randomized, double-blind, placebo-controlled fibromyalgia study (Example 1), analysed by baseline slow wave sleep (Example 2); assay type: in vivo, human; details: for response to oxybate (dose dependence) / change from baseline in Fibromyalgia Impact Questionnaire (FIQ) / change from baseline in pain visual analog scale (PVAS): FIG. 1; for change from baseline in Fibromyalgia Impact Questionnaire (FIQ) / change from baseline in pain visual analog scale (PVAS): Xyrem 4.5 g or 6 g/night vs placebo, 8 weeks
Source text: This study was a randomized, double-blind, placebo-controlled, parallel group study in subjects diagnosed with fibromyalgia.
The ACR criteria included: presence of widespread pain for more than 3 months in all 4 quadrants of the body as well as along the spine and the elicitation of pain at 11 or more out of 18 anatomically defined tender points upon palpation with a force of 4 kg.
Subjects underwent screening assessments. Subjects who met the eligibility criteria underwent a drug withdrawal and washout period during which time pain medications and any treatment for fibromyalgia were gradually withdrawn. At the end of the 2-week baseline assessment period, subjects who continued to meet inclusion/exclusion criteria and who reported an average pain score above 4 (on a visual analog scale [VAS] of 0 to 10) during the last week of the baseline period were randomized to 1 of 3 treatment groups: Xyrem 4.5 g/night, Xyrem 6 g/night, or placebo (half of the subjects randomized to placebo received placebo matching 4.5 g and the other half received placebo matching 6 g).
Test Product, Dose, Mode of Administration, and Duration of Treatment: • Sodium oxybate 4.5 g, oral solution (9 mL) taken in 2 equally divided doses (4.5 mL added to 2 oz water) each night for 8 weeks. • Sodium oxybate 6 g, oral solution (12 mL) taken in 2 equally divided doses (6 mL added to 2 oz of water) each night for 8 weeks.
Reference Therapy, Dose and Mode of Administration: • Placebo (sodium citrate solution) 4.5 g, oral solution (9 mL) matching volume of Xyrem 4.5 g, taken in 2 equally divided doses (4.5 mL added to 2 oz water) each night. • Placebo (sodium citrate solution) 6 g, oral solution (12 mL) matching volume of Xyrem 6 g, taken in 2 equally divided doses (6 mL added to 2 oz water) each night.
The primary efficacy parameter was a binary composite parameter for the treatment of fibromyalgia syndrome. The proportion of subjects in each treatment group that met all 3 of the following response criteria was compared to assess the efficacy of Xyrem in response to fibromyalgia syndrome. • Pain Severity: as assessed by pain VAS data recorded 3 time a day by the subject in an electronic diary (eDiary). For pain VAS, a response was defined as a reduction in average pain of 20% or greater from baseline to Week 8. • Functionality (Fibromyalgia Impact Questionnaire [FIQ]): Change from baseline to a study visit was assessed. A response was defined as a reduction of 20% or greater in FIQ total score from baseline to Week 8. • Patient Global Impression of Change (PGIc): The subject's perception of the overall improvement in their fibromyalgia symptoms was assessed by means of the PGIc questionnaire completed at the end of study. A response to treatment was defined as a response of “Very much better” or “Much better” on the PGIc.
Severity of Pain: the mean change from baseline to a study visit in pain severity (VAS pain). The proportion of responders for pain, defined as the proportion of subjects who had at least 20% reduction in pain severity from baseline to a study visit.
Fibromyalgia Impact Questionnaire: The mean change from baseline to a study visit in FIQ total score and subscale scores. The proportion of FIQ responders, defined as the proportion of subjects who had at least a 20% reduction in FIQ total score from baseline to a study visit.
Subjective Assessments of Sleep and Fatigue: • Daytime Sleepiness: the mean change from baseline to a study visit in the Epworth Sleepiness Scale (ESS). • Sleep Patterns: the mean change from baseline to a study visit in the Jenkins Scale (JS). • Fatigue: the mean change from baseline to a study visit in the fatigue VAS score. • Functional Outcomes of Sleep Questionnaire (FOSQ): the mean changes from baseline to a study visit in FOSQ total score and subscale scores. […]

narcolepsy = details: in vivo; cited from earlier work
brain = details: in vivo; cited from earlier work
[2] = target: GABA-ketoglutarate transaminase (Homo sapiens, UniProt P80404); details: cited from earlier work
Chain of GABA-ketoglutarate transaminase (P80404 29-500): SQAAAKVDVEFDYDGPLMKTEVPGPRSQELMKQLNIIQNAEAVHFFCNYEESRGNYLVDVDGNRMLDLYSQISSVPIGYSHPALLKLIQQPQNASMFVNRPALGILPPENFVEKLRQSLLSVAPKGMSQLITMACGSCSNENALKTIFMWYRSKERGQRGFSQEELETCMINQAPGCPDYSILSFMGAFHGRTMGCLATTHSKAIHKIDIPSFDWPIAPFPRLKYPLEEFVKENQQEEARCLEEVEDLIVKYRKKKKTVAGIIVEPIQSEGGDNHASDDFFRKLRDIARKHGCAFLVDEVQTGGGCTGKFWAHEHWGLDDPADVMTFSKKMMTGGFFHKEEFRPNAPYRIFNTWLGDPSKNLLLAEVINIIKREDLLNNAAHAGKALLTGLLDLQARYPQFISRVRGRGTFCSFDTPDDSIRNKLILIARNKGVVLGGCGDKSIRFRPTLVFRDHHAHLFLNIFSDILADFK

[3] = test system: narcolepsy patients with cataplexy; details: cited from earlier work
[4] = patients with less than about 1% slow wave sleep at baseline or screening
[5] = patients with ≥20% slow wave sleep prior to treatment

SMILES: O=C(O)CCCO [oxybate, Gamma-hydroxybutyrate]
- oxybate response (FIQ, Pain VAS, Fatigue VAS, TPC) ([1]; low baseline slow wave sleep (quartile 1), FIG. 3A-3D): improved oxybate response
- response to oxybate (dose dependence) [1, 4]: dose-dependent response
- change from baseline in Fibromyalgia Impact Questionnaire (FIQ) [1, 4]: significant improvements
- change from baseline in pain visual analog scale (PVAS) [1, 4]: significant improvements
- response to oxybate (dose dependence) [1, 5]: did not exhibit a dose-dependent response
- change in FIQ from baseline ([1]; slow wave sleep quartile 1 (<13.5 min stage 3/4 sleep at baseline), 4.5 g and 6.0 g Xyrem vs placebo, FIG. 3A): significant improvements
- change in Fatigue VAS from baseline ([1]; slow wave sleep quartile 1 (<13.5 min stage 3/4 sleep at baseline), 4.5 g and 6.0 g Xyrem vs placebo, FIG. 3C): significant improvements
- change in Tender Points Count (TPC) from baseline ([1]; slow wave sleep quartile 1 (<13.5 min stage 3/4 sleep at baseline), 4.5 g and 6.0 g Xyrem vs placebo, FIG. 3D): significant improvements
- REM latency (narcolepsy): decreases
- REM sleep (narcolepsy): increases
- signs and symptoms of narcolepsy (daytime sleepiness, cataplexy, sleep paralysis, hypnagogic hallucinations) (narcolepsy): substantially reduces
- sleep apnea (narcolepsy): reduces
- total sleep time (narcolepsy): increases
- brain acetylcholine (brain): increases
- brain dopamine (brain): increases
- glucose utilization in the brain (brain): depression
- inhibition of GABA-ketoglutarate transaminase [2]: inhibition

SMILES: O=C(O)CCCO [sodium oxybate]
- change from baseline in Fibromyalgia Impact Questionnaire (FIQ) [1, 5]: did not differ significantly
- change from baseline in pain visual analog scale (PVAS) [1, 5]: did not differ significantly
- consolidation of REM sleep [3]: increased
- duration of slow wave sleep [3]: increased
- number of sleep arousals [3]: decreased
